Data taken from paper PMC9181188 (International Journal of Molecular Sciences, 2022).
In brackets after ≈: the same amount, converted by molar mass. Where two headings read alike, the source gives them in different places.

Columns and labels:
[1] = system: S. epidermidis ATCC 12228; experiment: MIC, twofold microdilution, standard strain; format: cell-based; conditions: Staphylococcus epidermidis, ATCC12228; 18 h of treatment; read-out: MIC S. epidermidis ATCC 12228
[2] = system: S. epidermidis T 5399 848/19; experiment: MIC, clinical S. epidermidis strain; format: cell-based; conditions: Staphylococcus epidermidis, T5399848/19, quinolone-susceptible, 18 h of treatment
SW620 cells = experiment: MTT assay, SW620; format: cell-based, human; conditions: for IC50: Homo sapiens, SW-620, 72 h, human metastatic colon cancer, 72 h, MTT, mean ± SD; for SI SW620: SI = IC50 for normal cell line (HaCaT)/IC50 cancer cell line
[3] = system: S. epidermidis KR 4243 829/19; experiment: MIC, clinical S. epidermidis strain; format: cell-based; conditions: Staphylococcus epidermidis, KR4243829/19, quinolone-susceptible, 18 h of treatment
P. aeruginosa ATCC 27853 = experiment: MIC, twofold microdilution, standard strain; format: cell-based; conditions: Pseudomonas aeruginosa, ATCC27853; 18 h of treatment; read-out: MIC P. aeruginosa ATCC 27853
[4] = system: S. epidermidis KR 4047 825/19; experiment: MIC, clinical S. epidermidis strain; format: cell-based; conditions: Staphylococcus epidermidis, KR4047825/19, quinolone-resistant, 18 h of treatment
E. coli ATCC 25922 = experiment: MIC, twofold microdilution, standard strain; format: cell-based, Escherichia coli; conditions: for MIC: Escherichia coli, read-out: MIC E. coli ATCC 25922
S. aureus ATCC 29213 = experiment: MIC, twofold microdilution, standard strain; format: cell-based; conditions: Staphylococcus aureus, ATCC29213; 18 h of treatment; read-out: MIC S. aureus ATCC 29213
M. tuberculosis strains = experiment: MABA MIC, mycobacterial strains as a group; format: cell-based; conditions: Mycobacterium tuberculosis, read-out: MIC antimycobacterial (strain not specified)
[5] = system: S. epidermidis T 5253 845/19; experiment: MIC, clinical S. epidermidis strain; format: cell-based; conditions: Staphylococcus epidermidis, T5253845/19, quinolone-resistant, 18 h of treatment
[6] = system: S. epidermidis T 5501 851/19; experiment: MIC, clinical S. epidermidis strain; format: cell-based; conditions: Staphylococcus epidermidis, T5501851/19, read-out: MIC T 5501 851/19, quinolone-susceptible, 18 h of treatment
SW480 cells = experiment: MTT assay, SW480; format: cell-based, human; conditions: for IC50: Homo sapiens, SW480, 72 h, human primary colon cancer, 72 h, MTT, mean ± SD; for SI SW480: SI = IC50 for normal cell line (HaCaT)/IC50 cancer cell line
M. tuberculosis H37Rv = experiment: MABA (microplate Alamar blue assay) MIC; format: cell-based; conditions: Mycobacterium tuberculosis, 336 h, read-out: MIC M. tuberculosis H37Rv
S. aureus NCTC 4163 = experiment: MIC, twofold microdilution, standard strain; format: cell-based; conditions: Staphylococcus aureus, NCTC4163; 18 h of treatment; read-out: MIC S. aureus NCTC 4163
S. aureus ATCC 25923 = experiment: MIC, twofold microdilution, standard strain; format: cell-based; conditions: Staphylococcus aureus, ATCC25923; 18 h of treatment; read-out: MIC S. aureus ATCC 25923
[7] = system: quinolone-susceptible clinical coagulase-negative staphylococci; experiment: MIC, quinolone-susceptible clinical isolates as a group; format: cell-based; conditions: Staphylococcus epidermidis, five quinolone-susceptible isolates, read-out: MIC against quinolone-susceptible clinical isolates
S. aureus ATCC 6538 = experiment: MIC, twofold microdilution, standard strain; format: cell-based; conditions: Staphylococcus aureus, ATCC6538; 18 h of treatment; read-out: MIC S. aureus ATCC 6538
[8] = system: S. epidermidis KR 4313 834/19; experiment: MIC, clinical S. epidermidis strain; format: cell-based; conditions: Staphylococcus epidermidis, KR4313834/19, quinolone-susceptible, 18 h of treatment
[9] = system: standard staphylococci (S. aureus, S. epidermidis); experiment: MIC, standard Gram-positive strains as a group; format: cell-based; conditions: Staphylococcus aureus; range over standard Gram-positive strains; read-out: MIC against standard staphylococci
PC3 cells = experiment: MTT assay, PC3; format: cell-based, human; conditions: for IC50: human metastatic prostate cancer, 72 h, MTT, mean ± SD; for SI PC3: SI = IC50 for normal cell line (HaCaT)/IC50 cancer cell line
HaCaT cells = experiment: MTT assay, HaCaT normal cells; format: cell-based; conditions: human immortal keratinocyte cell line, 72 h, mean ± SD
[10] = system: S. epidermidis KR 4358/2 840/19; experiment: MIC, clinical S. epidermidis strain; format: cell-based; conditions: Staphylococcus epidermidis, KR4358/2840/19; clinical S. epidermidis, quinolone-susceptible, 18 h of treatment; read-out: MIC KR 4358/2 840/19
[11] = system: M. tuberculosis Spec. 192 (Sensitive to Tuberculostatics); experiment: MABA (microplate Alamar blue assay) MIC; format: cell-based; conditions: Mycobacterium tuberculosis, 336 h, read-out: MIC M. tuberculosis Spec. 192 (Sensitive to Tuberculostatics)
S. aureus DNA gyrase [12] = biological target: T1, S. aureus DNA gyrase (Staphylococcus aureus, UniProt P0A0K8+P20831); experiment: biochemical
Experimental: (§1) The assay was performed using S. aureus DNA Gyrase Supercoiling kit (Inspiralis). […] Samples were vortexed, centrifuged, and 20 µL of the aqueous phase of each sample was loaded onto a 1% agarose gel and left for 30 min prior to electrophoresis to allow diffusion of salt. Electrophoresis was conducted in TAE buffer for 3 h at 50 V. Gels were stained with ethidium bromide and visualized under UV light in a transilluminator (ChemiDoc MP, Bio Rad, Warsaw, Poland).

[13] = system: S. epidermidis ATCC 35984; experiment: MIC, twofold microdilution, standard strain; format: cell-based; conditions: Staphylococcus epidermidis, ATCC35984; 18 h of treatment; read-out: MIC S. epidermidis ATCC 35984
[14] = biological target: T2, S. aureus topoisomerase IV (Staphylococcus aureus, UniProt P0C1S7+P0C1U9); experiment: S. aureus topoisomerase IV decatenation assay; format: biochemical
T2 construct: purchased Inspiralis
Experimental: The assay was performed using S. aureus topoisomerase IV […] kit (Inspiralis). Kinetoplast DNA (kDNA) was the substrate for topoisomerase IV.

S. aureus DNA gyrase [15] = biological target: T1, S. aureus DNA gyrase; conditions: read-out: IC50 for Gyrase; inhibition of DNA supercoiling, 30 min at 37 °C
Experimental: as §1

[16] = system: quinolone-resistant isolates (KR 4047 and T5253); experiment: MIC, quinolone-resistant clinical isolates as a group; format: cell-based; conditions: Staphylococcus epidermidis, read-out: MIC against quinolone-resistant clinical isolates
[17] = system: SW480, SW620, and PC3 cancer cell lines; experiment: MTT assay, cancer cell lines as a group; format: cell-based, human; conditions: Homo sapiens, 72 h, all three cancer cell lines (SW480, SW620, PC3), read-out: IC50 against all tested cancer cell lines

T2 sequence (P0C1U9 whole entry): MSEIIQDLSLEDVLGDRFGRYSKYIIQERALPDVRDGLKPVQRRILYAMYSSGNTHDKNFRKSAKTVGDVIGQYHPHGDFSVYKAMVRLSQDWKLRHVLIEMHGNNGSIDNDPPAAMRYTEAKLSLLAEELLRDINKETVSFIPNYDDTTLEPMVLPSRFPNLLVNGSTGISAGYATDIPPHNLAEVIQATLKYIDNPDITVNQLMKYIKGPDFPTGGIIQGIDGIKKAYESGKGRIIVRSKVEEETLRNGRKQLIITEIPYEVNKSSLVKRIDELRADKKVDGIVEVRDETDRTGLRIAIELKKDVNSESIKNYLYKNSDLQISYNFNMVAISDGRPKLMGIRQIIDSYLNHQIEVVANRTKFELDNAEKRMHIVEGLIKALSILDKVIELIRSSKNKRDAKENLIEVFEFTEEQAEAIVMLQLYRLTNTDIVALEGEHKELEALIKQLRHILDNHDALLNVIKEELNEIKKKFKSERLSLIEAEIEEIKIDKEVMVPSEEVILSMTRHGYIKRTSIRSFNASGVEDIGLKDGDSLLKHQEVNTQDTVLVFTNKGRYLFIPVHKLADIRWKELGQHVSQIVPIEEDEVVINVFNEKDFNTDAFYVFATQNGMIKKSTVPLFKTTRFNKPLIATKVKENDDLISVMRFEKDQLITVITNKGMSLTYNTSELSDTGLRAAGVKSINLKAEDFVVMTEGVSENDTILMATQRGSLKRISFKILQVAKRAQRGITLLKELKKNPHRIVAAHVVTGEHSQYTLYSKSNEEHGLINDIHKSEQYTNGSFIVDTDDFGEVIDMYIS
T2 sequence (P0C1S7 whole entry): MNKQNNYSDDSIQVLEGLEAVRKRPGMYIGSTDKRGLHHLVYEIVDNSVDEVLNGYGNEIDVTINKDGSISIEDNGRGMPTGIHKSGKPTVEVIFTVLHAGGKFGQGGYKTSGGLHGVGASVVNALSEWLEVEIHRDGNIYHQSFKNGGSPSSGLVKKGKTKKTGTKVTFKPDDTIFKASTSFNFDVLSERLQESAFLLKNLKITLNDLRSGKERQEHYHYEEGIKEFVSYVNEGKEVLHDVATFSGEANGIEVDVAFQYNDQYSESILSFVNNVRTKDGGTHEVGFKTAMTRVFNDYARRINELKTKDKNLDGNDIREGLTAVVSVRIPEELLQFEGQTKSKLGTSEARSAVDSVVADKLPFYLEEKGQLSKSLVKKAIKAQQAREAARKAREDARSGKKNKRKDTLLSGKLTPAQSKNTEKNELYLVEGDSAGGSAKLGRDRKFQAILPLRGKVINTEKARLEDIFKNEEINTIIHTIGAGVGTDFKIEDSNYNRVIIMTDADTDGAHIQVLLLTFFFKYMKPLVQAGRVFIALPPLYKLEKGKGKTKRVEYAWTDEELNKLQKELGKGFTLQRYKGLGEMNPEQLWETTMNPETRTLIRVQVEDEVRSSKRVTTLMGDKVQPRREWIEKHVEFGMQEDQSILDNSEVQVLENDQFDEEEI
T1 sequence (P20831 whole entry): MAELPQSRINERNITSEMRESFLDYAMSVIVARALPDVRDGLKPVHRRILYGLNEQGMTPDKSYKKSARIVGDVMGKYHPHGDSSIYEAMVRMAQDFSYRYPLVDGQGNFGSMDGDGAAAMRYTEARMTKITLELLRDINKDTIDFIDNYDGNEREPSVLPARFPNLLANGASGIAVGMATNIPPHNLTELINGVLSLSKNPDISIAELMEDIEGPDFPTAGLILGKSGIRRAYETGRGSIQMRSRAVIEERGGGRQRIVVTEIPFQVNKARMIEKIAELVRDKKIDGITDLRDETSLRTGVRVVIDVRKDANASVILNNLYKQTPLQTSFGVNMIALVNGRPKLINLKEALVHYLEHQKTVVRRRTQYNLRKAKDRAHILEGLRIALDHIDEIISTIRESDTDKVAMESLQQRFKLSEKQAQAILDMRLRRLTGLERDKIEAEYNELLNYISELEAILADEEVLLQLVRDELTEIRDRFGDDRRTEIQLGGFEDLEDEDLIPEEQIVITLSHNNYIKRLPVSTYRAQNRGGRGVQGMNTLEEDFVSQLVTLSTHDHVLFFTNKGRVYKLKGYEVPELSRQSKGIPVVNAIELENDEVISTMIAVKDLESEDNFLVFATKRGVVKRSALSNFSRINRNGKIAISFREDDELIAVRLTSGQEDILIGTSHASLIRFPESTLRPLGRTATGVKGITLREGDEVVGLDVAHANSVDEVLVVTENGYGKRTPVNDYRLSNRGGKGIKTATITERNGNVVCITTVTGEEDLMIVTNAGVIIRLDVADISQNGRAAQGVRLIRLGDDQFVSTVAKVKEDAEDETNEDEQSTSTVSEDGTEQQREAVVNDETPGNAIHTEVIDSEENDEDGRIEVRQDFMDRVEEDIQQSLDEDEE
T1 sequence (P0A0K8 whole entry): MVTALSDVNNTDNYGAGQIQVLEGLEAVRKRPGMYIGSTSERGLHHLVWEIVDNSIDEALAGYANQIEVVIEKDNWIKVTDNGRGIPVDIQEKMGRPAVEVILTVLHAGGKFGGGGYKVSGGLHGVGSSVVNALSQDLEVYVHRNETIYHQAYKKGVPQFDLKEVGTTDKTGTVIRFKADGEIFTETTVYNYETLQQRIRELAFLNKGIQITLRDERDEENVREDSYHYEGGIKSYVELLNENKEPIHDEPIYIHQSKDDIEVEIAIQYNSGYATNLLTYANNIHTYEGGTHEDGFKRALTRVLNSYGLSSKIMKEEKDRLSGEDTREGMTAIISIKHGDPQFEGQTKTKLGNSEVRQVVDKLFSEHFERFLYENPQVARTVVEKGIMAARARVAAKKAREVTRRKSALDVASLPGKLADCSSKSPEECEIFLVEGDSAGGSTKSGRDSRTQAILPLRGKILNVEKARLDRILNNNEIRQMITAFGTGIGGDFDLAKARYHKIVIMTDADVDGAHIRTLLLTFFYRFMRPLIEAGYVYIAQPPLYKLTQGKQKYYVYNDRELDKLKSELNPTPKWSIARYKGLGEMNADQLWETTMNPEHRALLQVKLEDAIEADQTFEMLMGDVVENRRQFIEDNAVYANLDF

| SMILES | MIC [1] | MIC [2] | IC50 (SW620 cells) | SI SW620 (SW620 cells) | MIC [3] | MIC (P. aeruginosa ATCC 27853) | MIC [4] | MIC (S. aureus ATCC 29213) | MIC [5] | MIC [6] | IC50 (SW480 cells) | SI SW480 (SW480 cells) | MIC (S. aureus NCTC 4163) | MIC (S. aureus ATCC 25923) | MIC (S. aureus ATCC 6538) | MIC [8] | MIC [9] | IC50 (PC3 cells; Homo sapiens, PC-3, 72 h) | SI PC3 (PC3 cells) | IC50 (HaCaT cells) | also measured |
| --- | --- | --- | --- | --- | --- | --- | --- | --- | --- | --- | --- | --- | --- | --- | --- | --- | --- | --- | --- | --- | --- |
| C/C=C/C(=O)N1CCCC2CN(c3c(F)cc4c(=O)c(C(=O)O)cn(C5CC5)c4c3OC)CC21 (stereo not shown) [Compound 1m, 7-{1-(E)-But-2-enoyl-octahydro-pyrrolo[3,4-b]pyridin-6-yl}-1-cyclopropyl-6-fluoro-8-methoxy-4-oxo-1,4-dihydro-quinoline-3-carboxylic acid] | 1 µg/mL (≈ 2.13 µM) | 1 µg/mL (≈ 2.13 µM) | 24.8 ± 3.2 µM | 2.6 | 0.5 µg/mL (≈ 1.06 µM) | > 512 µg/mL | 32 µg/mL (≈ 68.2 µM) | 0.5 µg/mL (≈ 1.06 µM) | 64 µg/mL (≈ 136 µM) | 1 µg/mL (≈ 2.13 µM) | 31.6 ± 4.7 µM | 2.0 | 0.5 µg/mL (≈ 1.06 µM) | 0.5 µg/mL (≈ 1.06 µM) | 0.5 µg/mL (≈ 1.06 µM) | 1 µg/mL (≈ 2.13 µM) | 0.5 to 2 µg/mL (≈ 1.06 to 4.26 µM) | 23.8 ± 3.4 µM | 2.7 | 64.1 ± 2.3 µM | MIC E. coli ATCC 25922 (E. coli ATCC 25922; 18 h of treatment): 2 to 16 µg/mL; MIC (E. coli ATCC 25922; ATCC25922, 18 h of treatment): 16 µg/mL (≈ 34.1 µM); MIC (M. tuberculosis strains): 64 µg/mL (≈ 136 µM); MIC (M. tuberculosis H37Rv): 64 µg/mL (≈ 136 µM); MIC ([7]; 18 h): 0.5 to 1 µg/mL (≈ 1.06 to 2.13 µM); MIC [10]: 1 µg/mL (≈ 2.13 µM); MIC [11]: 64 µg/mL (≈ 136 µM); IC50 (S. aureus DNA gyrase [12]): > 136 µM; MIC [13]: 0.5 µg/mL (≈ 1.06 µM); IC50 [14]: 130 µM |
| CCC=CCC=CCC=CCC=CCC=CCC=CCCC(=O)N1CCN(c2cc3c(cc2F)c(=O)c(C(=O)O)cn3C2CC2)CC1 [Compound 8] |  |  |  |  |  |  |  |  |  |  |  |  |  |  |  |  |  |  |  |  | IC50 (S. aureus DNA gyrase [15]): > 99.7 µM; IC50 ([14]; read-out: IC50 for Topo IV, inhibition of kDNA decatenation, 30 min at 37 °C): > 99.7 µM |
| COc1c(N2CC3CCCN(C(C)=O)C3C2)c(F)cc2c(=O)c(C(=O)O)cn(C3CC3)c12 (stereo not shown) [Compound 14m, 7-(1-Acetyl-octahydro-pyrrolo[3,4-b]pyridin-6-yl)-1-cyclopropyl-6-fluoro-8-methoxy-4-oxo-1,4-dihydro-quinoline-3-carboxylic acid] | 0.5 µg/mL (≈ 1.13 µM) | 0.5 µg/mL (≈ 1.13 µM) | 18.4 ± 3.2 µM | 4.7 | 0.5 µg/mL (≈ 1.13 µM) | > 512 µg/mL | 32 µg/mL (≈ 72.2 µM) | 0.5 µg/mL (≈ 1.13 µM) | 32 µg/mL (≈ 72.2 µM) | 0.5 µg/mL (≈ 1.13 µM) | 14.3 ± 3.2 µM | 6.0 | 0.25 µg/mL (≈ 0.564 µM) | 0.25 µg/mL (≈ 0.564 µM) | 0.25 µg/mL (≈ 0.564 µM) | 0.5 µg/mL (≈ 1.13 µM) | 0.25 to 1 µg/mL (≈ 0.564 to 2.25 µM) | 12.5 ± 1.6 µM | 6.9 | 86.5 ± 2.1 µM | MIC E. coli ATCC 25922 (E. coli ATCC 25922; 18 h of treatment): 2 to 16 µg/mL; MIC (E. coli ATCC 25922; ATCC25922, 18 h of treatment): 8 µg/mL (≈ 18 µM); MIC (M. tuberculosis strains; summary over strains): 64 µg/mL (≈ 144 µM); MIC (M. tuberculosis H37Rv; 2 weeks of treatment): 64 µg/mL (≈ 144 µM); MIC [7]: 0.5 µg/mL (≈ 1.13 µM); MIC [10]: 0.5 µg/mL (≈ 1.13 µM); MIC ([11]; 2 weeks of treatment): 64 µg/mL (≈ 144 µM); IC50 (S. aureus DNA gyrase [12]): 133 µM; MIC [13]: 0.5 µg/mL (≈ 1.13 µM); IC50 [14]: 135 µM |
| CCCCCCCC(=O)N1CCCC2CN(c3c(F)cc4c(=O)c(C(=O)O)cn(C5CC5)c4c3OC)CC21 (stereo not shown) [Compound 15m, 1-Cyclopropyl-6-fluoro-8-methoxy-7-(1-octanoyl-octahydro-pyrrolo[3,4-b]pyridin-6-yl)-4-oxo-1,4-dihydro-quinoline-3-carboxylic acid] | 4 µg/mL (≈ 7.58 µM) | 4 µg/mL (≈ 7.58 µM) | 4.7 ± 1.5 µM | 18.6 | 8 µg/mL (≈ 15.2 µM) | 512 µg/mL (≈ 970 µM) | 8 µg/mL (≈ 15.2 µM) | 4 µg/mL (≈ 7.58 µM) | 8 µg/mL (≈ 15.2 µM) | 8 µg/mL (≈ 15.2 µM) | 3.2 ± 0.8 µM | 27.3 | 4 µg/mL (≈ 7.58 µM) | 4 µg/mL (≈ 7.58 µM) | 4 µg/mL (≈ 7.58 µM) | 8 µg/mL (≈ 15.2 µM) | 4 to 8 µg/mL (≈ 7.58 to 15.2 µM) | < 5 µM | 28.1 | 87.2 ± 3.6 µM | MIC (E. coli ATCC 25922; ATCC25922, 18 h): 128 µg/mL (≈ 243 µM); MIC (M. tuberculosis strains): ≥ 128 µg/mL; MIC (M. tuberculosis H37Rv; 2 weeks of treatment): 256 µg/mL (≈ 485 µM); MIC [16]: 8 µg/mL (≈ 15.2 µM); IC50 [17]: < 5 µM; IC50 (PC3 cells): 3.1 ± 0.9 µM; MIC [10]: 8 µg/mL (≈ 15.2 µM); MIC [11]: 128 µg/mL (≈ 243 µM); MIC [13]: 8 µg/mL (≈ 15.2 µM) |
